{
  "source": "patent US20260345596A1",
  "about": "“TREATMENT OF LOCALLY ADVANCED OR METASTATIC UROTHELIAL CARCINOMA WITH ERDAFINITIB” (priority 2023, published 2026)",
  "key": {"[1]": {"conditions": "in vivo; cited from earlier work"}, "[2]": {"test_system": "locally advanced or metastatic urothelial carcinoma with selected FGFR3 alterations", "assay": "Study BLC3001 Cohort 2: efficacy of BALVERSA versus pembrolizumab", "assay_type": "in vivo, human", "conditions": "(95% CI)", "method": "Subjects are assigned to Cohort 1 or Cohort 2 based upon prior treatment with an anti-PD-(L)1 agent. […] Cohort 1 and Cohort 2 are assessed independently."}},
  "data": [
    {"compound": "CC(=O)O[C@@]12CO[C@@H]1C[C@H](O)[C@@]1(C)C(=O)[C@H](O)C3=C(C)[C@@H](OC(=O)[C@H](O)[C@@H](NC(=O)OC(C)(C)C)c4ccccc4)C[C@@](O)([C@@H](OC(=O)c4ccccc4)[C@H]21)C3(C)C", "note": "[Docetaxel]", "values": [
      {"measurement": "Cystoid macular edema", "setting": "[1]", "result": "Cystoid macular edema has been reported"},
      {"measurement": "Severe fluid retention", "setting": "[1]", "result": "Severe fluid retention has been reported"}
    ]},
    {"compound": "Pembrolizumab: anti-PD-(L)1 agent pembrolizumab, 200 mg every 3 weeks", "values": [
      {"measurement": "Median OS", "setting": "[2]", "result": "11.1 (95% CI: 9.7, 13.6) months"}
    ]},
    {"compound": "CC[C@]12C=CCN3CC[C@@]4(c5cc([C@@]6(C(=O)OC)C[C@@H]7C[C@@H](C(C)(F)F)CN(Cc8c6[nH]c6ccccc86)C7)c(OC)cc5N(C)[C@H]4[C@@](O)(C(=O)OC)[C@@H]1OC(C)=O)[C@@H]32", "note": "[Vinflunine]", "values": [
      {"measurement": "Posterior reversible encephalopathy syndrome (PRES)", "setting": "[1]", "result": "Cases of posterior reversible encephalopathy syndrome (PRES) have been observed"}
    ]}
  ]
}
